The source of these data is US20250212891A1, “MIXTURES AND COMPOSITIONS COMPRISING PAENIBACILLUS STRAINS OR FUSARICIDINS AND CHEMICAL PESTICIDES” (BASF SE, priority 2016, published 2025).

Assay [1] concerns Pyricularia oryzae. The format is cell-based. The settings on record: Pyrior, single active, 7 days after inoculation.
The test system of assay [2] is Septoria tritici. The assay can be described thus: Microtiterplate test against leaf blotch on wheat (Septtr). The format is cell-based.
The subject of assay [3] is Leptosphaeria nodorum. The assay can be described thus: Microtiterplate test against wheat leaf spots (Leptno). It counts as cell-based.
Assay [4] relates to Alternaria solani. The assay can be described thus: Microtiterplate test against early blight (Alteso). It counts as cell-based.
The subject of assay [5] is Botrytis cinerea. The assay can be described thus: Microtiterplate test against grey mold (Botrci). It counts as cell-based.
The subject of assay [6] is Fusarium graminearum (GIBBZE). It counts as in vivo. The conditions noted are these: protective application, 360 ppm.
Assay [7] relates to Phytophthora infestans (PHYTIN). The format is in vivo. The conditions noted are these: protective application, 7.2 ppm.
Assay [8] has as its system Alternaria solani (ALTESO). The assay can be described thus: Fungal growth assay in 96 well plates. The conditions noted are these: for IC50: OD 600 nm, about 18° C.; for pIC50: summary over ALTESO and BOTRCI of Tab. 18, read-out: IC50 values (antifungal efficacy, Tab. 18). The format is cell-based.
Assay [9] deals with Botrytis cinerea (BOTRCI). The assay can be described thus: Fungal growth assay in 96 well plates. It counts as cell-based. The conditions noted are these: evaluation 7 days after inoculation, OD 600 nm, about 18° C., read-out: Fungal growth inhibition (IC50 [μM]) BOTRCI (7 d).
Assay [10] concerns Phakopsora pachyrhizi (PHAKPA). The assay can be described thus: Glasshouse test, soybean rust on soybean, protective application. It counts as in vivo. The conditions noted are these: in planta, 360 ppm.
For assay [11], the system named is Alternaria solani (ALTESO). The assay can be described thus: Glasshouse test, early blight on tomato, protective application. The format is in vivo. The conditions noted are these: in planta, 36 ppm.
The subject of assay [12] is Botrytis cinerea (BOTRCI). The assay can be described thus: Glasshouse test, grey mold on pepper, protective application. The format is in vivo. The settings on record: in planta.
Assay [13] relates to clinically relevant fungi and gram-positive bacteria such a Staphylococcus aureus. The settings on record: ChemMedChem 7, 871-882, 2012; cited from earlier work.
[14] abbreviates: evaluation 3 days after inoculation, read-out: Fungal growth inhibition (IC50 [μM]) ALTESO (3 d).
Where [15] appears, read: evaluation 7 days after inoculation, read-out: Fungal growth inhibition (IC50 [μM]) ALTESO (7 d).
The mark [16] stands for this setting: Alternaria solani, 72 h, evaluation 3 days after inoculation, read-out: Fungal growth inhibition (IC50 [μM]) ALTESO (3 d).
The mark [17] stands for this setting: Alternaria solani, 168 h, evaluation 7 days after inoculation, read-out: Fungal growth inhibition (IC50 [μM]) ALTESO (7 d).
Where [18] appears, read: Botrytis cinerea, 168 h, 1 ppm, read-out: Observed efficacy.
[19] abbreviates: Botrytis cinerea, 168 h, read-out: Observed efficacy.
The mark [20] stands for this setting: Botrytis cinerea, 168 h, 0.016 ppm, read-out: Observed efficacy.
Where [21] appears, read: Botrytis cinerea, 168 h, 0.063 ppm, read-out: Observed efficacy.

pIC50: −log10 of the molar value. Where two headings read alike, the source gives them in different places. Positions of bridges follow the written chain, without caps; N, C: chain ends. Non-standard residues stand in square brackets, D forms with d. Residues, ends and D or L forms follow the SMILES beside them. ξ: configuration not given here. *: point of attachment. Pentadecanoyl(3ξ-OH,15-Gua) = N=C(N)NCCCCCCCCCCCCC(O)CC(=O)*; d(aThr) = C[C@@H](O)[C@@H](N)C(=O)O

Turning to `Cn1cc(C(=O)Nc2cccc3c2[C@@H]2CC[C@H]3C2=C(Cl)Cl)c(C(F)F)n1` (racemic) [Benzovindiflupyr, benzovindiflupyr, reference compound], the Observed efficacy in [1] (0.016 ppm) stood at 72%; in assay [2] (0.25 ppm) it was 77%; in assay [3] (0.25 ppm), 26%; in assay [4] (0.016 ppm), 12%; in assay [5] (0.063 ppm), 17%.
Broadly, the IC50 is the concentration that inhibits the measured activity by half. With `CC(C)[C@@H]1NC(=O)[C@@H](C(C)C)NC(=O)[C@@H](NC(=O)CC(O)CCCCCCCCCCCCN=C(N)N)C(C)OC(=O)[C@@H](C)NC(=O)[C@@H](CCC(N)=O)NC(=O)[C@@H]([C@H](C)O)NC1=O` (stereo in doubt) [Fusaricidin B, fusaricidin B], in assay [6], the “% efficacy (% fungal attack), head blight on wheat caused by Fusarium graminearum” value is on record as 0%. For the same compound, in [7], the “% efficacy (% fungal attack), late blight on tomato caused by Phytophthora infestans” value is on record as 4%. Besides, the IC50 in [8] (setting [14]) was determined as 1.1 µM; in assay [8] (setting [15]), 0.6 µM; in assay [9], 0.6 µM.
In the case of `CO/C=C(/C(=O)OC)c1ccccc1Oc1cc(Oc2ccccc2C#N)ncn1` [Azoxystrobin], the Observed efficacy in assay [2] (0.063 ppm) was 60%; in assay [3] (0.25 ppm), 59%; in assay [4] (0.016 ppm), 43%.
Broadly, the pIC50 is the IC50 on a negative log10 scale, so that one unit is a factor of ten. As for `CCC(C)C1NC(=O)C(NC(=O)CC(O)CCCCCCCCCCCCNC(=N)N)C(C)OC(=O)C(C)NC(=O)C(CC(N)=O)NC(=O)C(C(C)O)NC(=O)C(Cc2ccc(O)cc2)NC1=O` (stereo not drawn) [Compound 1A, fusaricidin 1A] ({Pentadecanoyl(3ξ-OH,15-Gua)}-TIYTNA; ester 1-C; configuration not given here), the Observed efficacy worked out at 3% in [1] (0.004 ppm); 7% in [1] (1 ppm); 9% in [2] (0.016 ppm); 8% in [2] (0.063 ppm); 12% in assay [2] (0.25 ppm); 19% in [3] (1 ppm). Also, the Observed efficacy is listed as 1% in [4] (0.016 ppm), 7% in [4] (0.063 ppm), 10% in [4] (0.25 ppm) and 58% in assay [4] (1 ppm). In [10], the “% efficacy (% fungal attack) PHAKPA” value stood at 95%. Besides, the IC50 was 0.6 µM in assay [8] (setting [16]); 0.5 µM in assay [8] (setting [17]); 0.3 µM in assay [9] (Botrytis cinerea, 168 h). Also, the pIC50 in assay [8] (Alternaria solani) is 6.22 to 6.40. In [11], the “% efficacy (% fungal attack) ALTESO” value was 74%. Also, the “% efficacy (% fungal attack) BOTRCI” value in assay [12] (36 ppm) is on record as 97%; in assay [12] (360 ppm), 99%. The inhibition of growth at 1 ppm in assay [5] (setting [18]) turned out to be 40%.
For `CCC(C)C1NC(=O)C(NC(=O)CC(O)CCCCCCCCCCCCNC(=N)N)C(C)OC(=O)C(C)NC(=O)C(CCC(N)=O)NC(=O)C(C(C)O)NC(=O)C(Cc2ccc(O)cc2)NC1=O` (stereo not drawn) [Compound 1B, fusaricidin 1B] ({Pentadecanoyl(3ξ-OH,15-Gua)}-TIYTQA; ester 1-C; configuration not given here), the Observed efficacy in [1] (0.016 ppm) was 2%; in [1] (0.063 ppm), 3%; in assay [1] (0.25 ppm) it was 3%; in [1] (1 ppm), 12%; in [2] (0.016 ppm), 20%; in [2] (0.063 ppm), 22%. Further, the Observed efficacy in assay [2] (0.25 ppm) was determined as 20%; in assay [3] (0.25 ppm) it was 0%; in assay [3] (1 ppm), 14%; in [4] (0.063 ppm), 13%; in assay [4] (0.25 ppm), 14%; in [4] (1 ppm) it was 59%. Moreover, the “% efficacy (% fungal attack) PHAKPA” value in [10] amounted to 97%. For the same compound, the half-maximal inhibitory concentration (IC50) in assay [8] (setting [16]) is 0.6 µM; in assay [8] (setting [17]), 0.4 µM; in [9] (Botrytis cinerea, 168 h) it was 0.4 µM. The pIC50 in assay [8] (Alternaria solani) was 6.22 to 6.40. In addition, the “% efficacy (% fungal attack) BOTRCI” value in [12] (36 ppm) came out at 97%; in assay [12] (360 ppm), 100%. Further, the inhibition of growth at 0.25 ppm in [5] (setting [19]) is 4%. In assay [5] (setting [18]), the inhibition of growth at 1 ppm amounted to 50%.
For the compound `CC1COC(Cn2cncn2)(c2ccc(Oc3ccc(Cl)cc3)cc2Cl)O1` (stereo not drawn) [Difenoconazol], the Observed efficacy in assay [4] (0.25 ppm) is 67%.
Take `CNC(=O)/C(=N/OC)c1ccccc1COc1cc(C)ccc1C` [Dimoxystrobin]: the Observed efficacy in assay [2] (0.063 ppm) is listed as 73%; in [4] (0.063 ppm) it was 36%; in assay [5] (0.063 ppm), 0%; in assay [5] (1 ppm) it was 23%.
Regarding `N#Cc1c[nH]cc1-c1cccc2c1OC(F)(F)O2` [Fludioxonil], the inhibition of growth at 0.004 ppm in assay [5] (setting [19]) was determined as 12%.
Regarding `O=C(NCCc1ncc(C(F)(F)F)cc1Cl)c1ccccc1C(F)(F)F` [Fluopyram], the Observed efficacy in assay [2] (0.25 ppm) worked out at 12%; in assay [2] (1 ppm), 32%.
Compound `Cn1cc(C(=O)Nc2ccccc2-c2cc(F)c(F)c(F)c2)c(C(F)F)n1` [Fluxapyroxad] registered an Observed efficacy in assay [5] (0.016 ppm) of 1%.
On to `CC(C)[C@@H]1NC(=O)[C@@H](C(C)C)NC(=O)[C@@H](NC(=O)CC(O)CCCCCCCCCCCCN=C(N)N)[C@@H](C)OC(=O)[C@@H](C)NC(=O)[C@@H](CC(N)=O)NC(=O)[C@@H]([C@@H](C)O)NC1=O` (stereo partly drawn) [Fusaricidin A, fusaricidin A] ({Pentadecanoyl(3ξ-OH,15-Gua)}-T[dV]V[d(aThr)][dN][dA]; ester 1-C), for which the MIC value range in assay [13] was 0.78 to 3.12 µg/mL. Also, the “% efficacy (% fungal attack), head blight on wheat caused by Fusarium graminearum” value in assay [6] was 31%. The “% efficacy (% fungal attack), late blight on tomato caused by Phytophthora infestans” value in assay [7] is 15%. In addition, the figures for the IC50 in assay [8] (setting [14]), in assay [8] (setting [15]) and in assay [9] were 1.3 µM, 0.7 µM and 0.5 µM, respectively.
Turning to `COCC(=O)N(c1c(C)cccc1C)[C@H](C)C(=O)OC` [Mefenoxam], the Observed efficacy in assay [4] (1 ppm) is on record as 18%; in [5] (0.063 ppm), 5%.
Regarding `CC(O)(Cn1cncn1)c1ccc(Oc2ccc(Cl)cc2)cc1C(F)(F)F` (stereo not drawn) [Mefentrifluconazol, 2-[4-(4-chlorophenoxy)-2-(trifluoromethyl)phenyl]-1-(1H-1,2,4-triazol-1-yl) propan-2-ol, reference compound], the Observed efficacy in assay [2] (0.001 ppm) is recorded as 21%; in assay [3] (0.001 ppm), 0%; in [3] (0.016 ppm), 29%; in assay [4] (0.016 ppm), 12%. The inhibition of growth at 0.016 ppm in [5] (setting [20]) is 5%.
For `COCC(=O)N(c1c(C)cccc1C)C(C)C(=O)OC` (stereo not drawn) [Metalaxyl], the figures for the Observed efficacy in [3] (0.063 ppm) and in assay [4] (16 ppm) were 0% and 10%, respectively. Also, in assay [5] (setting [19]), the inhibition of growth at 0.25 ppm turned out to be 0%.
On to `CC1(C)CCC(Cc2ccc(Cl)cc2)C1(O)Cn1cncn1` (stereo not drawn) [Metconazol, metconazole, reference compound], for which the Observed efficacy in assay [1] (0.25 ppm) was found to be 23%; in assay [2] (0.016 ppm) it was 25%; in assay [3] (0.016 ppm), 3%; in [3] (0.063 ppm), 27%; in [4] (0.063 ppm) it was 45%. The inhibition of growth at 0.004 ppm in assay [5] (Botrytis cinerea, 168 h, 0.004 ppm, read-out: Observed efficacy) was 1%. Besides, the inhibition of growth at 0.016 ppm in assay [5] (setting [20]) worked out at 9%. For the same compound, the inhibition of growth at 0.063 ppm in assay [5] (setting [21]) worked out at 29%.
With `OC(Cc1ccccc1Cl)(Cn1nc[nH]c1=S)C1(Cl)CC1` (stereo not drawn) [Prothioconazol, prothioconazole, reference compound], the Observed efficacy in assay [1] (0.25 ppm) came to 25%; in assay [2] (0.063 ppm), 10%.
In the case of `COC(=O)N(OC)c1ccccc1COc1ccn(-c2ccc(Cl)cc2)n1` [Pyraclostrobin, pyraclostrobin, reference compound], the Observed efficacy came to 28% in [1] (0.001 ppm); 44% in assay [1] (0.004 ppm); 12% in [2] (0.004 ppm); 3% in assay [3] (0.001 ppm); 11% in assay [3] (0.016 ppm). Moreover, in assay [5] (Botrytis cinerea, 168 h, 0.001 ppm, read-out: Observed efficacy), the inhibition of growth at 0.001 ppm came to 4%. The inhibition of growth at 0.016 ppm in [5] (setting [20]) came out at 5%. Besides, the inhibition of growth at 0.25 ppm in assay [5] (setting [19]) came out at 10%.
In the case of `Cc1cc(C)nc(Nc2ccccc2)n1` [Pyrimethanil], the Observed efficacy in [3] (0.063 ppm) is recorded as 1%. The inhibition of growth at 0.063 ppm in [5] (setting [21]) came out at 11%. Also, in assay [5] (Botrytis cinerea, 168 h, 4 ppm, read-out: Observed efficacy), the inhibition of growth at 4 ppm was 45%.
On to `CC1(C)CCC(=Cc2ccc(Cl)cc2)C1(O)Cn1cncn1` (stereo not drawn) [Triticonazol, triticonazole, reference compound], for which, in [1] (4 ppm), the Observed efficacy amounted to 39%. Moreover, the inhibition of growth at 0.25 ppm in [5] (setting [19]) amounted to 19%.
Consider prohexadione-calcium [Prohexadion-ca], for which the Observed efficacy in assay [1] (4 ppm) came out at 4%.
